# Experimental data from patent US7208597B2, “Pyridyl-triazine derivatives as microbiocidal active substances” (Ciba Specialty Chemicals Corporation, priority 2002, dated 2007).
# How the values were obtained:
# Type in all cases: cell-based
# [1] = test system: Staphylococcus aureus ATCC 6538; test: MIC, agar incorporation test; details: ATCC6538, 24 hours at 37° C.
# Protocol: (§1) Determination of the Minimum Inhibitory Concentration (MIC) in the Agar Incorporation Test (MIC Test) [table] The plates are incubated at 37° C. for 24 hours (A. niger at 28° C. for 3 days) and then the highest dilution (lowest concentration) of the test substance at which growth is just no longer discernible (corresponds to the MIC) is determined.
# [2] = test system: Aspergillus niger ATCC 6275; test: MIC, agar incorporation test; details: ATCC6275, 72 h, 28° C. for 3 days
# Protocol: as §1
# [3] = test system: C. minutissimum ATCC 23348; test: MIC, agar incorporation test; details: Corynebacterium minutissimum, ATCC23348, 24 hours at 37° C.
# Protocol: as §1
# [4] = test system: Candida albicans ATCC 10231; test: MIC, agar incorporation test; details: ATCC10231, 24 hours at 37° C.
# Protocol: as §1
# [5] = test system: Corynebacterium xerosis ATCC 373; test: MIC, agar incorporation test; details: ATCC373, 24 hours at 37° C.
# Protocol: as §1
# [6] = test system: Escherichia coli ATCC 10536; test: MIC, agar incorporation test; details: ATCC10536, 24 hours at 37° C.
# Protocol: as §1
# [7] = test system: Escherichia coli NCTC 8196; test: MIC, agar incorporation test; details: NCTC8196, 24 hours at 37° C.
# Protocol: as §1
# [8] = test system: Klebsiella pneumoniae ATCC 4352; test: MIC, agar incorporation test; details: ATCC4352, 24 hours at 37° C.
# Protocol: as §1
# [9] = test system: Propionibacterium acnes ATCC 6919; test: MIC, agar incorporation test; details: Cutibacterium acnes, ATCC6919, 24 hours at 37° C.
# Protocol: as §1
# [10] = test system: Proteus vulgaris ATCC 6896; test: MIC, agar incorporation test; details: ATCC6896, 24 hours at 37° C.
# Protocol: as §1
# [11] = test system: Pseudomonas aeruginosa ATCC 15442; test: MIC, agar incorporation test; details: ATCC15442, 24 hours at 37° C.
# Protocol: as §1
# [12] = test system: Salmonella choleraesuis ATCC 9184; test: MIC, agar incorporation test; details: Salmonella enterica, 24 hours at 37° C.
# Protocol: as §1
# [13] = test system: Staphylococcus epidermidis ATCC 12228; test: MIC, agar incorporation test; details: ATCC12228, 24 hours at 37° C.
# Protocol: as §1
# [14] = test system: Actinomyces viscosus ATCC 43146; test: Substantivity on hydroxyapatite and growth-inhibiting action; details: discs pre-treated with artificial saliva, 30 minutes in ethanolic solution at 5 ppm; 24 hours at 37° C.; compared to untreated control
# Protocol: Testing the Substantivity of 2-tert-butyl-4-n-octylamino-6-pyrid-2-yl-1,3,5-triazine (140) on Hydroxyapatite and Determination of the Growth-Inhibiting Action Hydroxyapatite discs (diameter 10 mm) are placed in artificial saliva (Deutsche Zahnärztliche Zeitschrift DZZ 5/2002) for 4 hours, rinsed 4 times in NaCl solution and then incubated for 30 minutes in an ethanolic solution of the test substance (140) at 5 ppm. The discs are then transferred to a Nunclon-surface titre plate (12 wells) and incubated at 37° C. for 24 hours in CASO nutrient medium inoculated with Actinomyces viscosus ATCC 43146 (about 10^5/ml).
# [15] = test system: biofilm of a defined mixed culture of various gram+ and gram− oral micro-organisms and a yeast (Candida albicans); test: Activity in the biofilm model (supragingival plaque on hydroxyapatite discs)
# Description: Testing the Activity of 2-tert-butyl-4-n-octylamino-6-pyrid-2-yl-1,3,5-triazine (140) in the Biofilm Model Principle: See Guggenheim et al. (2001), “Validation of an in vitro biofilm model of supragingival plaque”, J. Dent Res. 80 (1). Hydroxyapatite discs are pre-treated with human saliva and a biofilm of a defined mixed culture of various gram+ and gram− oral micro-organisms (Streptococci, Actinomyces sp., Veillonella & Fusobacterium sp. and others) and a yeast (Candida albicans) is allowed to grow on the hydroxyapatite. Over the course of the test, which lasts a total of 4 days, the discs are immersed several times in an application formulation of the substance (0.5% (140)). Finally, the biofilm is harvested and the living cell count is determined.
compound,measurement,setting,value
CCCCCCCCCCCC(=O)Nc1nc(C)nc(-c2ccncc2)n1 [Compound of formula (123)],MIC,[1],8 µg/mL
CCCCCCNc1nc(C)nc(-c2ccccn2)n1 [Compound of formula (131)],MIC,[1],30 µg/mL
CCCCCCNc1nc(C)nc(-c2cccnc2)n1 [Compound of formula (135)],MIC,[1],60 µg/mL
"CCCCCCCCNc1nc(-c2ccccn2)nc(C(C)(C)C)n1 [Compound of formula (140), 2-tert-butyl-4-n-octylamino-6-pyrid-2-yl-1,3,5-triazine]",MIC,[2],> 120 µg/mL
same,MIC,[3],0.94 µg/mL
same,MIC,[4],> 120 µg/mL
same,MIC,[5],0.94 µg/mL
same,MIC,[6],60 µg/mL
same,MIC,[7],60 µg/mL
same,MIC,[8],120 µg/mL
same,MIC,[9],0.94 µg/mL
same,MIC,[10],> 120 µg/mL
same,MIC,[11],> 120 µg/mL
same,MIC,[12],120 µg/mL
same,MIC,[1],0.94 µg/mL
same,MIC,[13],120 µg/mL
same,inhibition of the growth of Actinomyces viscosus following adsorption onto hydroxyapatite discs,[14],inhibition of the growth
same,action on microbial count of the biofilm (in words),[15]; compared to placebo formulation and control containing 10% ethanol,clear reduction in the microbial count
same,living cell count of biofilm (Mean),"[15]; hydroxyapatite discs pre-treated with human saliva, 4 days, discs immersed several times in application formulation (0.5% (140))",1.1 × 10^5 CPU/disc
